Values quoted from earlier work, collected in patent US9817001B2, “Methods for determining LDL cholesterol treatment” (Boston Heart Diagnostics Corporation, priority 2008, dated 2017).

Test system: HDL particle profile (α-1 HDL, preβ-1 HDL)
Details: for effect on preβ-1 HDL level: by decreasing CETP activity; for effect on apoA-I kinetics: in vivo

| SMILES | effect on preβ-1 HDL level | effect on apoA-I kinetics | statin effectiveness to change the HDL particle profile beneficially (statin therapy, decreasing pre-β1 and increasing α-1) |
| --- | --- | --- | --- |
| CC(C)c1c(C(=O)Nc2ccccc2)c(-c2ccccc2)c(-c2ccc(F)cc2)n1CC[C@@H](O)C[C@@H](O)CC(=O)O [atorvastatin] | significantly decrease | little or no effect |  |
| CC[C@H](C)C(=O)O[C@H]1C[C@@H](C)C=C2C=C[C@H](C)[C@H](CC[C@@H]3C[C@@H](O)CC(=O)O3)[C@H]21 [lovastatin] |  |  | almost no change |
| CC(C)c1nc(N(C)S(C)(=O)=O)nc(-c2ccc(F)cc2)c1/C=C/[C@@H](O)C[C@@H](O)CC(=O)O [Rosuvastatin, rosuvastatin] | significantly decrease | little or no effect |  |
